From patent US10517889B2, “Modulators of SMAD7 expression” (Ionis Pharmaceuticals, Inc., priority 2017, dated 2019)
Strand notation (5' to 3'): a small letter for the sugar, then the base; units joined by * are phosphorothioate-linked, units joined directly phosphodiester-linked; [ ] holds rarer units or linkages, { } end groups; capitals alone tell only the bases. k = constrained ethyl (cEt); [5mC] = 5-methylcytosine; d = 2'-deoxy (DNA)

How the values were obtained:
[1] = system: human SMAD7 mRNA; test: Dose-dependent inhibition of human SMAD7 mRNA expression in Hep3B cells (Example 3, Study 1 and 2); assay type: cell-based; conditions: electroporation; for % inhibition of SMAD7 mRNA expression: approximately 16 hours; for IC50: Study 2 (740-20000 nM)
Summary of the method: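 Hep3B cells, 20,000 per well, electroporated with antisense oligonucleotide at 0.31, 1.25, 5.00 or 20.00 μM (first series) or 0.74, 2.22, 6.67 or 20.00 μM (second series). After ~16 h, SMAD7 mRNA measured by RT-qPCR (RTS5062), normalised to RIBOGREEN total RNA. Percent inhibition vs untreated cells; IC50 derived.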

[2] = system: human SMAD7 mRNA; test: Antisense inhibition of human SMAD7 mRNA expression in Hep3B cells by 3-10-3 cEt gapmers, 10,000 nM, electroporation (Example 2); assay type: cell-based; conditions: Hep3B cells, electroporation with 10,000 nM antisense oligonucleotide, approximately 24 hours, SMAD7 mRNA by RT-PCR (RTS5062), relative to untreated control cells
Summary of the method: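 Hep3B cells (20,000/well) were electroporated with 10,000 nM 3-10-3 cEt gapmer (16-mer, phosphorothioate, 5-methylcytosines) and harvested after about 24 h. SMAD7 mRNA quantified by RT-qPCR with primer probe set RTS5062, normalized to total RNA by RiboGreen; percent inhibition relative to untreated cells.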

[3] = 740 nM, Study 2, relative to untreated control cells

Row | Substance | % inhibition of SMAD7 mRNA expression [1, 3] | % inhibition of SMAD7 mRNA expression ([1]; 2220 nM, Study 2) | % inhibition of SMAD7 mRNA expression ([1]; 6670.0 nM, Study 2) | % inhibition of SMAD7 mRNA expression ([1]; 20000.0 nM, Study 2) | IC50 [1] | % Inhibition [2]
1 | 830067 (kG*kA*kA*dA*dT*dG*dG*dT*dG*d[5mC]*dT*d[5mC]*dT*kG*k[5mC]*k[5mC]; antisense) [compound 830067] | 23% | 59% | 80% | 88% | 10000 nM | 63%
2 | 830095 (kT*kG*kA*dG*dT*dA*dA*dA*d[5mC]*dA*dA*dT*dA*k[5mC]*k[5mC]*k[5mC]; antisense) [compound 830095] | 3% | 37% | 42% | 60% | 2000 nM | 73%
3 | 830097 (k[5mC]*k[5mC]*kA*dT*d[5mC]*dT*dA*dA*d[5mC]*dA*dA*d[5mC]*dA*kT*k[5mC]*k[5mC]; antisense) [compound 830097] | 29% | 60% | 78% | 86% | 1000 nM | 68%
4 | 830099 (kG*k[5mC]*k[5mC]*dT*dT*dT*dG*dG*dA*dA*dT*dT*dA*kG*kT*kA; antisense) [compound 830099] | 42% | 56% | 70% | 92% | 10000 nM | 79%
5 | 830100 (kG*kG*kA*dG*d[5mC]*dT*d[5mC]*dA*dA*dA*d[5mC]*dT*dT*kT*kG*kA; antisense) [compound 830100] | 3% | 8% | 38% | 69% | 2000 nM | 61%
6 | 830122 (kG*kA*kG*dA*dA*dT*d[5mC]*dA*dA*dG*d[5mC]*d[5mC]*d[5mC]*kT*kG*kG; antisense) [compound 830122] | 28% | 54% | 66% | 74% | 3000 nM | 57%
7 | 830128 (antisense kA*k[5mC]*k[5mC]*dT*d[5mC]*d[5mC]*dG*dA*dG*dG*d[5mC]*dA*d[5mC]*k[5mC]*kA*k[5mC]) [compound 830128] | 20% | 55% | 74% | 85% | 3000 nM | 87%
8 | 830131 (antisense k[5mC]*k[5mC]*k[5mC]*dA*d[5mC]*d[5mC]*dT*d[5mC]*d[5mC]*dG*dA*dG*dG*k[5mC]*kA*k[5mC]) [compound 830131] | 34% | 48% | 51% | 61% | 5000 nM | 68%
9 | 830135 (antisense kA*kA*kG*dT*dA*d[5mC]*dA*dA*dT*d[5mC]*dT*d[5mC]*d[5mC]*kT*kG*kG) [compound 830135] | 16% | 44% | 56% | 71% | 5000 nM | 64%
10 | 830137 (antisense kA*kT*kG*dA*dA*dA*dG*dT*dA*d[5mC]*dA*dA*dT*k[5mC]*kT*k[5mC]) [compound 830137] | 19% | 46% | 63% | 84% | 3000 nM | 68%
11 | 830138 (antisense kG*kG*kA*dG*dT*dT*dG*d[5mC]*dA*dT*dG*d[5mC]*d[5mC]*kT*kT*kT) [compound 830138] | 0% | 40% | 61% | 87% | 5000 nM | 71%
12 | 830142 (antisense kT*kG*kT*dG*d[5mC]*dA*d[5mC]*d[5mC]*dA*dG*dG*dT*dG*kA*kG*k[5mC]) [compound 830142] | 13% | 37% | 32% | 49% | > 20000 nM | 60%
13 | 830144 (antisense kG*kG*kG*dT*dG*dT*dG*d[5mC]*dA*d[5mC]*d[5mC]*dA*dG*kG*kT*kG) [compound 830144] | 47% | 68% | 85% | 96% | 1000 nM | 66%
14 | 830157 (antisense kG*kA*kA*d[5mC]*dT*dG*dT*dG*d[5mC]*d[5mC]*dT*d[5mC]*dA*kG*k[5mC]*kA) [compound 830157] | 24% | 50% | 73% | 81% | 3000 nM | 70%
15 | 830163 (antisense k[5mC]*kA*kA*d[5mC]*dT*dG*dA*dA*dG*dG*dT*dG*dA*k[5mC]*k[5mC]*k[5mC]) [compound 830163] | 33% | 49% | 73% | 84% | 2000 nM | 60%
16 | 830168 (antisense kA*kT*kG*d[5mC]*dT*dT*dT*dT*dA*d[5mC]*dA*d[5mC]*dA*k[5mC]*k[5mC]*k[5mC]) [compound 830168] | 31% | 46% | 65% | 73% | 3000 nM | 81%
17 | 830170 (antisense kG*k[5mC]*kT*d[5mC]*dT*dG*dT*dT*dT*dG*dG*dA*d[5mC]*kA*kA*kG) [compound 830170] | 1% | 39% | 54% | 67% | 6000 nM | 60%
18 | 830180 (antisense k[5mC]*kG*kT*dG*dT*dA*d[5mC]*d[5mC]*d[5mC]*dA*dG*d[5mC]*dT*kG*k[5mC]*k[5mC]) [compound 830180] | 21% | 39% | 43% | 64% | 8000 nM | 62%
19 | 830207 (kA*kG*kG*dT*dG*dA*d[5mC]*dT*d[5mC]*dA*dT*d[5mC]*dA*kG*kG*k[5mC]; antisense) [compound 830207] | 49% | 74% | 85% | 93% | 1000 nM | 80%
20 | 830208 (kA*kA*kG*dG*dT*dG*dA*d[5mC]*dT*d[5mC]*dA*dT*d[5mC]*kA*kG*kG; antisense) [compound 830208] | 38% | 70% | 79% | 90% | 1000 nM | 57%
